{"source": "ChEMBL document CHEMBL5465560", "about": "“Selectivity Literature for EUbOPEN Chemogenomic Library” (2024)", "key": {"[1]": {"biological_target": "Protein kinase C theta type (Homo sapiens, UniProt Q04759)", "sequence (Q04759 whole entry, looked up)": "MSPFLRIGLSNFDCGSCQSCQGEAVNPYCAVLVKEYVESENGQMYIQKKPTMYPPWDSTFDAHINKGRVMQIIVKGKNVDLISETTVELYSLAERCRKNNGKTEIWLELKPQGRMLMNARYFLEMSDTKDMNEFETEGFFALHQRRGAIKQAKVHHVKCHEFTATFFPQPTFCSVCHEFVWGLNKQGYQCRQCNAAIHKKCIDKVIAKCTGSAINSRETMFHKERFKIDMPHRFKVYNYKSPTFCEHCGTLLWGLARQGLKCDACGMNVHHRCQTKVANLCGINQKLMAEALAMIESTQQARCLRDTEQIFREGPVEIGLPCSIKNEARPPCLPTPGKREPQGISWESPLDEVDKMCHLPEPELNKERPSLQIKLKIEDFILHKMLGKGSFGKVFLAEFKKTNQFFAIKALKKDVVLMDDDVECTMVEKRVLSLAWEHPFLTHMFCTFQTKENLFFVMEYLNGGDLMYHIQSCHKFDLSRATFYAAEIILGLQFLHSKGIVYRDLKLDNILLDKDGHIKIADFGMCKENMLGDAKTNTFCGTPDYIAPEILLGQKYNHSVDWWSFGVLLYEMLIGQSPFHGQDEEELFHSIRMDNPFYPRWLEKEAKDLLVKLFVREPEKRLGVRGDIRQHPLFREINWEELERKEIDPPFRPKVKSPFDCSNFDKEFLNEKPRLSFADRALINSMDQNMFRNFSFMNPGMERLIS", "experiment": "Selectivity interaction (KinomeScan (DiscoverX)) EUB0000695a PRKCQ", "settings": "at 100 nM"}, "[2]": {"biological_target": "T1, Serine/threonine-protein kinase TAO3 (Homo sapiens) (UniProt Q9H2K8)", "T1 sequence (whole entry)": "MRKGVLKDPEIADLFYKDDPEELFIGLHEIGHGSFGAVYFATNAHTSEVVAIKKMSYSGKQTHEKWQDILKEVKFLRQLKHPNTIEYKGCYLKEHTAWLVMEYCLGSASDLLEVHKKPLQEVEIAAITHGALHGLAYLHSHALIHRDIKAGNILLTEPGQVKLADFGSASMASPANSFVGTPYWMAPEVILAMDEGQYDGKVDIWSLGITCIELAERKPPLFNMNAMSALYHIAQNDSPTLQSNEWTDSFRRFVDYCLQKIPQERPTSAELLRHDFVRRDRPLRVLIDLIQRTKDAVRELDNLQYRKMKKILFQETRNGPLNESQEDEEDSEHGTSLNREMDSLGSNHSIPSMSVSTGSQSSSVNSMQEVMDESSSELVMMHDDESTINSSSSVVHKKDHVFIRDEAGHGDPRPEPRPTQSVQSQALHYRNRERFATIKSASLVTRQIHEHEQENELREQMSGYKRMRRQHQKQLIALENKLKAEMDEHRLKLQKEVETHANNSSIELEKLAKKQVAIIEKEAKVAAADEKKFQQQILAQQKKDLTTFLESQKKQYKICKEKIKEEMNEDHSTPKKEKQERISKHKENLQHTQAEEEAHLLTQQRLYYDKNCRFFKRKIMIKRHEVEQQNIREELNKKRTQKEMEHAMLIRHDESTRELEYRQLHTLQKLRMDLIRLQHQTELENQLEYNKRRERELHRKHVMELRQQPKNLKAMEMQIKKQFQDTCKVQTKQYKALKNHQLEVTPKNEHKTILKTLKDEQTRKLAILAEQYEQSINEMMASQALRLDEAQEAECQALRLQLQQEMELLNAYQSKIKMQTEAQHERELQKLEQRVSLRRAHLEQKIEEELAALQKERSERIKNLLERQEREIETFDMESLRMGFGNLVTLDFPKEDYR", "experiment": "Selectivity interaction (KinomeScan (DiscoverX)) EUB0000092b TAOK3", "settings": "at 10 µM"}, "[3]": {"biological_target": "T2, Mitogen-activated protein kinase kinase kinase 6 (Homo sapiens) (UniProt O95382)", "T2 sequence (whole entry)": "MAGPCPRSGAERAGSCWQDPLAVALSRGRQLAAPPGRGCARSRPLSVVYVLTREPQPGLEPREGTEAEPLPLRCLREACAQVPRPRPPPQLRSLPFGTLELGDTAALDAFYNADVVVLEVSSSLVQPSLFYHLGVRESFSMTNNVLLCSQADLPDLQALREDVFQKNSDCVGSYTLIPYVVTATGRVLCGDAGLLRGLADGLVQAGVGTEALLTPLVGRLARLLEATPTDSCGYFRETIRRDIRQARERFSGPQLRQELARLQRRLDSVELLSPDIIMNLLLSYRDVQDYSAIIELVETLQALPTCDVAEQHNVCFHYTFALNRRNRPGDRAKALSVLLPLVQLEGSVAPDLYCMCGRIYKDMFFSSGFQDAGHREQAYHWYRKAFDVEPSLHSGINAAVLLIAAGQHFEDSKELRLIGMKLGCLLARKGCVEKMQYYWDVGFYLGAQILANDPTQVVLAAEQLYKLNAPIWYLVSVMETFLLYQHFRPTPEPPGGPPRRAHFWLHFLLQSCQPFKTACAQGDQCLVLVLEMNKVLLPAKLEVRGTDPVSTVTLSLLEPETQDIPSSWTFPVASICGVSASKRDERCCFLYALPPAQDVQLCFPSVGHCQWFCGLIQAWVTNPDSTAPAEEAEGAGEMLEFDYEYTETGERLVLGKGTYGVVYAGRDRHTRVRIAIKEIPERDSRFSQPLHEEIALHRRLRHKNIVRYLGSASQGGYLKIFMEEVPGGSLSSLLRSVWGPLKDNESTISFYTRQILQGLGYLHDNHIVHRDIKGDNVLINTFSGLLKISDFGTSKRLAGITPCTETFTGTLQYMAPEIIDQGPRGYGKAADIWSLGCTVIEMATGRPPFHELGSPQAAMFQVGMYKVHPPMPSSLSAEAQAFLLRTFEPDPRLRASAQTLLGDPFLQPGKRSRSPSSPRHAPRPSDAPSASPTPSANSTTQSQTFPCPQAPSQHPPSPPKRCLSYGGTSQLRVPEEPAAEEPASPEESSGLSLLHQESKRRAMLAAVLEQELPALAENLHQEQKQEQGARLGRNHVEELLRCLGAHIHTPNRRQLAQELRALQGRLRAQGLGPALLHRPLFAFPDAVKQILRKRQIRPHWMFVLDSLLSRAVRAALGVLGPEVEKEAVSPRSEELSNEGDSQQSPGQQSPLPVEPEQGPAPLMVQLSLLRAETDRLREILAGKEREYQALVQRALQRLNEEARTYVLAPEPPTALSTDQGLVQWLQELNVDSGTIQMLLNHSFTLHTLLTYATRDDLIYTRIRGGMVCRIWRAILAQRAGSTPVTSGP", "experiment": "Selectivity interaction (KinomeScan (DiscoverX)) EUB0000045b MAP3K6"}, "[4]": {"biological_target": "Ribosomal protein S6 kinase alpha-5 (Homo sapiens) (UniProt O75582)", "sequence (O75582 whole entry, looked up)": "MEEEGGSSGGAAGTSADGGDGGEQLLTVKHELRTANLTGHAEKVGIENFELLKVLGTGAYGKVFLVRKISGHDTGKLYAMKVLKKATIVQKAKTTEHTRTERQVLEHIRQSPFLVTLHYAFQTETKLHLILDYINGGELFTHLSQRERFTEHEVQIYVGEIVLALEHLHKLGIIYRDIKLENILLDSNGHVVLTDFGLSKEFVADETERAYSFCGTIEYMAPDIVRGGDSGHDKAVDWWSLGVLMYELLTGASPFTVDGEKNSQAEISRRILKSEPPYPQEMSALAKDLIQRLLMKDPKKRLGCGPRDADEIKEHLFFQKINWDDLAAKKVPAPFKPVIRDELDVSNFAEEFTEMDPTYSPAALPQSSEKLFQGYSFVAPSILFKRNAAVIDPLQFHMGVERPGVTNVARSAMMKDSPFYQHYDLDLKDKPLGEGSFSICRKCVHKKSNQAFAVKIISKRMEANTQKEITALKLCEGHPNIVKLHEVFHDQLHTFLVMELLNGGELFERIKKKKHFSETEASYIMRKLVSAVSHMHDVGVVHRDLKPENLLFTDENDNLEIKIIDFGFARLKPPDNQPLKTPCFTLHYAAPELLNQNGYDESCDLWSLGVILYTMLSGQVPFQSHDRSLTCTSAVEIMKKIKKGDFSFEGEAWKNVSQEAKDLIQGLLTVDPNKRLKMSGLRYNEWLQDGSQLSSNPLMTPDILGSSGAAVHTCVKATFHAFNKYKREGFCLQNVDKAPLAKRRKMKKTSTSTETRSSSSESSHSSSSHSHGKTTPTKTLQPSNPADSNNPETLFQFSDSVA", "experiment": "Selectivity interaction (KinomeScan (DiscoverX)) EUB0001619a RPS6KA5", "settings": "at 1 µM"}, "[5]": {"biological_target": "Tyrosine-protein kinase JAK1 (Homo sapiens, UniProt P23458)", "sequence (P23458 whole entry)": "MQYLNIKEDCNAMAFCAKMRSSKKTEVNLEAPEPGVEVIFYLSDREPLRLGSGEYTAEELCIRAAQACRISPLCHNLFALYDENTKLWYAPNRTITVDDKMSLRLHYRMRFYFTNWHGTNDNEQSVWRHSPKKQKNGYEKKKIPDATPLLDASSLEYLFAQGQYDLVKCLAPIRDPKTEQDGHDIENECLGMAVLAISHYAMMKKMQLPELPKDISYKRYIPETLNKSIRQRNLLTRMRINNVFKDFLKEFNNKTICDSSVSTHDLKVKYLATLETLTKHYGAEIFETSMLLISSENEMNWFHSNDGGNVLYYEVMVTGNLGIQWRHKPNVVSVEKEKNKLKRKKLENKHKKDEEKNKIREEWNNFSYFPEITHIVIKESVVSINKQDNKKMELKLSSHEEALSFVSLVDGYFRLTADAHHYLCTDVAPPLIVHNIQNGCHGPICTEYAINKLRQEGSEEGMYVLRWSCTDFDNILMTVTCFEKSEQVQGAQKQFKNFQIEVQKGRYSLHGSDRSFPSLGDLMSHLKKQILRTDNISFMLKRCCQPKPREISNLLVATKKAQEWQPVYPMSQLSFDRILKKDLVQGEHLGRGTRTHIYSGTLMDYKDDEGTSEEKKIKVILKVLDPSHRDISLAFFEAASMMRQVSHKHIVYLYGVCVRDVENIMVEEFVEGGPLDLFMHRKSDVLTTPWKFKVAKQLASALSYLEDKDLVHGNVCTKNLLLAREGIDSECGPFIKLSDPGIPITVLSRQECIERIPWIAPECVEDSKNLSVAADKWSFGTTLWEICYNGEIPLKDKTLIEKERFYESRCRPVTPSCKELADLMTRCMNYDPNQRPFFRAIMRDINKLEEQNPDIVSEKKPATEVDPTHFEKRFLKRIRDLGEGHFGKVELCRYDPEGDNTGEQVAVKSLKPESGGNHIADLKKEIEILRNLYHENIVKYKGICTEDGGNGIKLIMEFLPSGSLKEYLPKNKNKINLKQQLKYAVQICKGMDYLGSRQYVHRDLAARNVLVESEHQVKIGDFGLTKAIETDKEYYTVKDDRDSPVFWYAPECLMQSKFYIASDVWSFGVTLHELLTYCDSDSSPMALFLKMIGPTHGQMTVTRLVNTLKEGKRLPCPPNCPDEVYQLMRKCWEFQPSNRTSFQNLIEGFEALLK", "experiment": "Selectivity interaction (ActivX KiNativ screen (ex vivo kinase selectivity in human PBMCs)) EUB0001619a JAK1", "format": "cell-based", "settings": "PBMC, at 1 µM"}}}
{"smiles": "Cc1cc(F)c(C(=O)Nc2cccc(-c3nncn3C(C)C)n2)cc1-n1cnc(C2CC2)c1", "values": [{"measurement": "% of control", "setting": "[1]", "result": 75, "unit": "%"}]}
{"smiles": "CCC(=O)N1CCN(c2ccc(-n3c(=O)ccc4cnc5ccc(-c6cnc7ccccc7c6)cc5c43)cc2C(F)(F)F)CC1", "values": [{"measurement": "% of control", "setting": "[2]", "result": 76, "unit": "%"}]}
{"smiles": "C=CC(=O)Nc1cc(-n2c(=O)ccc3cnc4ccc(-c5ccc(NS(C)(=O)=O)cc5)cc4c32)ccc1C", "values": [{"measurement": "% of control", "setting": "[3]; at 1 µM", "result": 100, "unit": "%"}, {"measurement": "% of control", "setting": "[3]; at 10 µM", "result": 100, "unit": "%"}]}
{"smiles": "N#Cc1cccc(-c2c[nH]c3ncnc(N4CCOCC4)c23)c1", "values": [{"measurement": "% of control", "setting": "[4]", "result": 100, "unit": "%"}, {"measurement": "% of inhibition", "setting": "[5]", "result": -1, "unit": "%"}]}
